Results from patent publication US20240398823A1, “DUAL INHIBITOR OF HISTONE DEACETYLASE 6 AND HEAT SHOCK PROTEIN 90” (TAIPEI MEDICAL UNIVERSITY, priority 2021, published 2024).

Tests used:
[1] = tested on: HCT116; assay: MTT assay, survival of human colorectal cancer cells HCT116; format: cell-based; conditions: HCT-116, 48 h, mean ± SD, read-out: Human cell lines HCT116 IC50(μM ± SD)
Method: The effects on cell viability of the HSP90/HDAC6 dual inhibitors as described in Synthesis Examples (such as Compounds 63, 64, and 66 to 76) were evaluated. Cells were seeded in 96-well plates (5000 cells/well). The next day, the serially diluted drugs were added into the wells and incubated at 37° C. for 48 h. Cell viability was measured by the MTT assay and is expressed as percentages of surviving drug-treated cells relative to untreated control cells. The IC50 was calculated by non-linear regression analysis.
The inhibitory effect of the HSP90/HDAC6 dual inhibitors as described in Synthesis Examples on the survival rate of human colorectal cancer cells HCT116 is evaluated using MTT assay.

[2] = target: T1, HSP90α (Homo sapiens, UniProt P07900); assay: HSP90 inhibition assay, FITC-geldanamycin competition fluorescence polarization, HSP90α; format: binding; conditions: FITC-GM competition
T1 construct: Reaction Biology Corporation (ran the assay as a service)

[3] = tested on: HSP90 client proteins (HSP70, Src, AKT, Rb, FAK); assay: Western blot of HSP70 and HSP90 client proteins in HCT116; format: cell-based, human; conditions: HCT116, 0.25-1 μM, 48 hours
Method: The ability of α-tubulin and histone H3 acetylation was measured.
(§1) The effects of the HSP90/HDAC6 dual inhibitors as described in Synthesis Examples (such as Compounds 63, 64, and 66 to 76) on several factors were evaluated. Cells were lysed in RIPA buffer (Thermo Fisher Scientific, Wal-tham, MA, USA) and protease inhibitor (Roche, Basel, CH). Sample were further separated in 8% or 15% SDS-PAGE and transferred to nitrocellulose membrane and blocked with 5% skim milk (w/v in PBS). Nitrocellulose membranes were then incubated with primary antibodies against the following antigens: HSP90, Src, AKT, Rb, phosphorylated Rb (p-Rb), FAK, HSP70, α-tubulin acetylation, acetyl histone H3, phosphorylated STAT1 (p-STAT1), STAT1 (Cell signaling, Danvers, MA, USA), α-tubulin, Histone H3 (Genetex, Irvine, USA), IDO (Santa Cruz Biotechnology Dallas, TX, USA) and PD-L1 (Novus, Littleton, CO, USA) at 4° C. for overnight. The target proteins were visualized by using HRP-conjugated secondary antibodies (Jackson ImmunoResearch Laboratories, West Grove, PA, USA) and enhanced chemiluminescence kit (Thermo Fisher Scientific, Waltham, MA, U.S.A.).
The ability of Compound 75 on the acetylation of α-tubulin and histone H3 was evaluated. HCT116 cells were administered with Compound 75 for 6 hours and analyzed by western blot. […] Next, whether Compound 75 inhibited HSP90 was evaluated. […]

[4] = tested on: PD-L1 and IDO expression in HCT116 and CT26 cell lines; assay: Western blot of IFN-γ-induced PD-L1 and IDO, STAT1 pathway, in HCT116 and CT26; format: cell-based, human; mouse; conditions: HCT116 and CT26, 48 hours, via p-STAT1 and STAT1
Method: The cells were tested in 6-well plates with 32×10^4 cells/well and co-treated with Compound 75 for 48 hours and analyzed by flow cytometry. Bar, SD.
as §1
Using western blot, whether Compound 75 reduced […]-induced PD-L1 and IDO performance by inhibiting STAT1 pathway was evaluated.

[5] = tested on: colorectal cancer tumors (CT26); assay: CT26 syngeneic tumor growth in immunocompetent Balb/c mice; format: in vivo, mouse; conditions: CT26 in Balb/c, 10, 25, 50 mg/kg i.v. every two days
Method: Tumor size in each mouse (FIG. 5B) and mean tumor size (FIG. 5C) were measured periodically. Bar, SEM. […] N values greater than 3.
The effects of the HSP90/HDAC6 dual inhibitors as described in Synthesis Examples (such as Compounds 63, 64, and 66 to 76) on syngeneic tumor treatment were evaluated. Female BALB/c mice were subcutaneously implanted with mouse colorectal cancer CT26 cells ([…] cells/mouse) in the left unilateral back. After tumor size reached 50 mm^3, mice were i.v. injected with […], STA9090 (Ganetespib), or anti-PD-1 antibody (clone RMP1-14) (4-8 mice per group). The progression of tumor sizes and body weights was measured twice per week. Tumor volume formula: V (mm^3)=(length×width×height)/2. Mice were sacrificed on day 25, and tumors and blood were collected for the analysis of immune cell populations.
After CT26 was injected subcutaneously into the back of immunocompetent mice (Balb/c), the tumors grew to 50 mm^3. Compound 75 was administered intravenously at 10 mg/kg, 25 mg/kg and 50 mg/kg every two days (FIG. 5A).

[6] = tested on: colorectal cancer tumors (CT26); assay: CT26 tumor model, Compound 75 and Anti-PD1 alone and combined; format: in vivo
[7] = Anti-PD1 combination study, Compound 75 50 mg/kg/2 days

## COc1ccc(N(Cc2ccc(C(=O)NO)cc2)C(=O)c2cc(C(C)C)c(O)cc2O)cc1 [Compound 75, 2,4-Dihydroxy-N-(4-hydroxycarbamoyl-benzyl)-5-isopropyl-N-(4-methoxy-phenyl)-benzamide]
[1]
  IC50: 0.27 ± 0.01 µM
[2]
  IC50: 52 nM
[3]
  HSP70 expression: an increase in HSP70 expression
  protein levels of client proteins (Src, AKT, Rb and FAK): a downregulation of the protein levels of client proteins
[4]
  IFN-γ-induced PD-L1 and IDO expression: downregulated PD-L1 and IDO expression
[5]
  growth of colorectal cancer tumors in mice: inhibit the growth of colorectal cancer tumors in mice
[6]; [7]
  body weight: no significant change in body weight
  toxicity to mice: not significantly toxic
[6]; Compound 75 50 mg/kg/2 days or Anti-PD1 200 μg alone
  treatment effect on CT26 tumor, agent alone: limited
[6]; Compound 75 50 mg/kg/2 days plus Anti-PD1 200 μg
  tumor growth, combined treatment with Anti-PD1: significantly inhibited tumor growth
